Data reported in patent US20240293367A1, “METHODS OF TREATING DISORDERS WITH A […]” (Cybin IRL Limited, priority 2023, published 2024).
Read-outs that look alike come from different tables or passages of the source.

Test: Phase I/IIa clinical PK of oral psilocin-d10, plasma, noncompartmental analysis (Cohorts 1-6)
Assay type: in vivo, human
Settings: for AUC(0-t) / AUC(0-inf) / Cmax / half-life / Vd/F / Tmax: human, plasma; for AUC(0-t) / AUC(0-inf) / Cmax / half-life / Vd/F: po; for AUC(0-inf): read-out: AUC0-inf Mean (SD); for half-life: read-out: T1/2 Mean (SD) (converted); for Vd/F: read-out: Vz/F Mean (SD); for Tmax: read-out: Tmax Median
Protocol: Phase I/IIa, Randomized, Double-Blind, Placebo-Controlled Study which assesses the safety, tolerability, pharmacokinetics, and pharmacodynamics of multiple ascending oral doses of psilocin-d10 in participants with and without MDD (ClinicalTrials.gov Identifier: NCT05385783). All subjects receiving study medication in Cohorts 1-6 received oral psilocin-d10 powder in solution (0.1M citric acid+Tang orange drink, 30 mL dose in a dose cup) and subjects receiving placebo received a similar volume of Tang orange drink without the psilocin-d10 study drug. All subjects receiving study medication in the relative bioavailability (BA) cohort received powder-filled capsules containing psilocin-d10 benzenesulfonate salt by ingestion with approximately 240 mL room temperature water, or oral psilocin-d10 powder in solution (0.1M citric acid+Tang orange drink, 30 mL dose in a dose cup) in a cross-over design. Psilocin-d10 for the powder in solution dosage form was manufactured by Patheon Pharma Services, with an isotopic purity of 79.89%. Psilocin-d10 benzenesulfonate salt for the powder-filled capsule dosage form was manufactured by Patheon Pharma Services, with an isotopic purity of 85.20%.
Cohorts 1, 4, 5, and 6 of the study was comprised of participants with MDD. Cohorts 2, 3, and the relative BA cohort of the study were comprised of normal healthy volunteers (NHV). […] MDD participants had been on a stable dose of antidepressant medication for at least one month prior to screening with an inadequate response to that antidepressant medication as judged by the Investigator, and continued to receive their prescribed antidepressant throughout the course of the study.
Cohort 1. For Cohort 1, 2 sentinel subjects were randomized and dosed, including 1 subject who received a psilocin-d10 1 mg oral dose and 1 subject who received a placebo dose. After the sentinel subjects were dosed, an additional 2 subjects were dosed, including a replacement subject for one of the sentinel subjects who withdrew consent and one additional subject. In total, four Cohort 1 subjects received a first dose of study medication on Day 1, and 3 subjects received a second dose of study medication on Day 22. For the first dose, 2 subjects received an active psilocin-d10 1 mg dose and 2 subjects received placebo. For the second dose, 3 subjects received an active psilocin-d10 1 mg dose.
Cohort 2. For Cohort 2, 4 subjects were randomized and dosed on Day 1 (2 subjects on one day, 2 subjects on the next day), including 3 subjects who received a psilocin-d10 3 mg oral dose and 1 subject who received a placebo dose. These same 4 subjects were again dosed on Day 8 (2 subjects on one day, 2 subjects on the next day), with all 4 subjects receiving a psilocin-d10 8 mg oral dose (note the actual washout was 11 days between doses).
Cohort 3. For Cohort 3 Day 1, 4 subjects were randomized and dosed on Day 1 (2 subjects on one day, 2 subjects on the next day), including 3 subjects who received a psilocin-do 8 mg oral dose and 1 subject who received a placebo dose. […] Another subject was dosed and left the study after the 2-hour PK sampling and has limited PK samples available for analysis from 0 to 2 hours—this subject's PK data has thus been excluded from the analysis presented hereinafter. For Cohort 3 Day 8, 3 subjects were dosed on Day 8 with a psilocin-d10 10 mg dose (2 sentinel subjects were dosed on one day, 1 non-sentinel subject was dosed on the next day).
Cohorts 4 and 5. For Cohorts 4 and 5, 12 participants each (24 participants total) were randomized in a 3:1 ratio to receive 12 mg of psilocin-d10 or matched placebo in a single dosing session on Day 1. Following a 21-day interval, all participants received a dose of 12 mg psilocin-d10 on Day 22 (second dose for participants originally randomized to psilocin-d10, first dose for participants randomized to placebo), and were followed to Day 42.
Cohort 6. […]

[1] = 8 mg, 8 mg oral, Cohorts 2 and 3 NHV, pooled
[2] = 10 mg, 10 mg oral, Cohort 3 NHV, Day 8
[3] = 12 mg, 12 mg oral, Cohort 4 MDD, Day 1 and Day 22
[4] = 12 mg, 12 mg oral, Cohort 5 MDD, Day 1 and Day 22
[5] = 12 mg, 12 mg oral, Cohorts 4 and 5 MDD, Day 1 and Day 22
[6] = 16 mg, 16 mg oral, Cohort 6 MDD, all subjects incl. 3 with emesis

## [2H]C([2H])([2H])N(C([2H])([2H])[2H])C([2H])([2H])C([2H])([2H])c1c[nH]c2cccc(O)c12 [psilocin-d10, 3-(2-(bis(methyl-d3)amino)ethyl-1,1,2,2-d4)-1H-indol-4-ol]
8 mg, 8 mg oral, Cohorts 2 and 3 NHV, pooled, 2 subjects excluded, read-out: AUC0-24 Mean (SD)
  AUC(0-t): 84 ng·h/mL
[1]
  AUC(0-inf): 87.8 ng·h/mL
  half-life: 5.51 h
  Vd/F: 744 L
8 mg, 8 mg oral, Cohorts 2 and 3 NHV, pooled, read-out: AUClast Mean (SD)
  AUC(0-t): 84 ng·h/mL
8 mg, 8 mg oral, Cohorts 2 and 3 NHV, pooled, read-out: Cmax Median
  Cmax: 17.1 ng/mL
10 mg, 10 mg oral, Cohort 3 NHV, Day 8, read-out: AUC0-24 Mean (SD)
  AUC(0-t): 101 ng·h/mL
[2]
  AUC(0-inf): 106 ng·h/mL
  half-life: 5.12 h
  Vd/F: 758 L
10 mg, 10 mg oral, Cohort 3 NHV, Day 8, read-out: AUClast Mean (SD)
  AUC(0-t): 101 ng·h/mL
10 mg, 10 mg oral, Cohort 3 NHV, Day 8, read-out: Cmax Mean (SD)
  Cmax: 13.4 ng/mL
10 mg, 10 mg oral, Cohort 3 NHV, Day 8, read-out: Cmax Median
  Cmax: 10.9 ng/mL
12 mg, 12 mg oral, Cohort 4 MDD, Day 1 and Day 22, read-out: AUC0-24 Mean (SD)
  AUC(0-t): 155 ng·h/mL
[3]
  AUC(0-inf): 165 ng·h/mL
  half-life: 5.62 h
  Vd/F: 668 L
12 mg, 12 mg oral, Cohort 4 MDD, Day 1 and Day 22, read-out: AUClast Mean (SD)
  AUC(0-t): 154 ng·h/mL
12 mg, 12 mg oral, Cohort 4 MDD, Day 1 and Day 22, read-out: Cmax Mean (SD)
  Cmax: 19.7 ng/mL
12 mg, 12 mg oral, Cohort 4 MDD, Day 1 and Day 22, read-out: Cmax Median
  Cmax: 18.6 ng/mL
12 mg, 12 mg oral, Cohort 5 MDD, Day 1 and Day 22, read-out: AUC0-24 Mean (SD)
  AUC(0-t): 137 ng·h/mL
[4]
  AUC(0-inf): 144 ng·h/mL
  half-life: 5.08 h
  Vd/F: 666 L
12 mg, 12 mg oral, Cohort 5 MDD, Day 1 and Day 22, read-out: AUClast Mean (SD)
  AUC(0-t): 137 ng·h/mL
12 mg, 12 mg oral, Cohort 5 MDD, Day 1 and Day 22, read-out: Cmax Mean (SD)
  Cmax: 16.9 ng/mL
12 mg, 12 mg oral, Cohort 5 MDD, Day 1 and Day 22, read-out: Cmax Median
  Cmax: 14.8 ng/mL
12 mg, 12 mg oral, Cohorts 4 and 5 MDD, Day 1 and Day 22, read-out: AUC0-24 Mean (SD)
  AUC(0-t): 146 ng·h/mL
[5]
  AUC(0-inf): 155 ng·h/mL
  half-life: 5.35 h
  Vd/F: ~667 L
12 mg, 12 mg oral, Cohorts 4 and 5 MDD, Day 1 and Day 22, read-out: AUClast Mean (SD)
  AUC(0-t): 145 ng·h/mL
12 mg, 12 mg oral, Cohorts 4 and 5 MDD, Day 1 and Day 22, read-out: Cmax Mean (SD)
  Cmax: 18.2 ng/mL
12 mg, 12 mg oral, Cohorts 4 and 5 MDD, Day 1 and Day 22, read-out: Cmax Median
  Cmax: 16.2 ng/mL
16 mg, 16 mg oral, Cohort 6 MDD, Day 1 and Day 22, all subjects incl. 3 with emesis, read-out: Cmax Mean (SD)
  Cmax: 19.8 ng/mL
16 mg, 16 mg oral, Cohort 6 MDD, all subjects incl. 3 with emesis, read-out: AUC0-24 Mean (SD)
  AUC(0-t): 155 ng·h/mL
[6]
  AUC(0-inf): 161 ng·h/mL
  half-life: 5.57 h
  Vd/F: 986 L
16 mg, 16 mg oral, Cohort 6 MDD, all subjects incl. 3 with emesis, read-out: AUClast Mean (SD)
  AUC(0-t): 151 ng·h/mL
16 mg, 16 mg oral, Cohort 6 MDD, all subjects incl. 3 with emesis, read-out: Cmax Median
  Cmax: 17.4 ng/mL
1 mg oral, Cohort 1 MDD, Day 1 and Day 22 pooled
  Tmax: 1 h
3 mg oral, Cohort 2 NHV, Day 1
  Tmax: 2 h
8 mg oral, Cohorts 2 and 3 NHV, pooled
  Tmax: 2 h
10 mg oral, Cohort 3 NHV, Day 8
  Tmax: 1 h
12 mg oral, Cohorts 4 and 5 MDD, Day 1 and Day 22
  Tmax: 1.03 h
16 mg oral, Cohort 6 MDD, all subjects incl. 3 with emesis
  Tmax: 1.03 h
Range of means, 1 to 10 mg doses
  mean clearance (CL/F), on average: 85.22 to 104.7 L/h
